# Tests used:
# HIV-1 (strain IIIB) = experiment: microbe, parasite or virus in culture; format: cell-based; conditions: Human immunodeficiency virus 1, IIIB, MT4, Table 12; anti-viral potency in MT-4 cells; read-out: IC50
# HIV-1 protease = HIV-1 protease (Human immunodeficiency virus type 1 group M subtype B, UniProt P04585); experiment: biochemical; conditions: Table 12; HIV-1 protease; read-out: Ki
smiles,measurement,setting,value
"CC(C)(CCCCNS(C)(=O)=O)CN(C[C@@H](O)[C@H](Cc1ccccc1)NC(=O)O[C@H]1CO[C@H]2OCC[C@H]21)S(=O)(=O)c1ccc2c(c1)OCCO2 [Compound 256, (3R,3aS,6aR)hexahydrofuro[2,3-b]furan-3-yl N-[(1S,2R)-1-benzyl-3-((2,3-dihydro-1,4-benzodioxin-6-ylsulfonyl)2,2-dimethyl-6-[(methylsulfonyl)amino]hexylamino)-2-hydroxypropyl]carbamate]",IC50,HIV-1 (strain IIIB),≤ 100 nM
same,Ki,HIV-1 protease,< 1 nM
"CC(C)(CCCN)CN(CC(O)C(Cc1ccccc1)NC(=O)OC1COC2OCCC12)S(=O)(=O)c1ccc2c(c1)OCO2 [Compound 257, 3R,3aS,6aR)hexahydrofuro[2,3-b]furan-3-yl N-(1S,2R)-3-[(5-amino-2,2-dimethylpentyl)(1,3-benzodioxol-5-ylsulfonyl)amino]-1-benzyl-2-hydroxypropylcarbamate]",IC50,HIV-1 (strain IIIB),100 to 500 nM
same,Ki,HIV-1 protease,< 1 nM
"CNc1cccc(S(=O)(=O)N(C[C@@H](O)[C@H](Cc2ccccc2)NC(=O)O[C@H]2CO[C@H]3OCC[C@H]32)CC(C)(C)CCCN)c1 [Compound 258, (3R,3aS,6aR)hexahydrofuro[2,3-b]furan-3-yl N-[(1S,2R)-3-((5-amino-2,2-dimethylpentyl)[3-(methylamino)phenyl]sulfonylamino)-1-benzyl-2-hydroxypropyl]carbamate]",IC50,HIV-1 (strain IIIB),100 to 500 nM
same,Ki,HIV-1 protease,< 1 nM
COc1ccc(S(=O)(=O)N(CC(O)[C@H](Cc2ccccc2)NC(=O)OC2COC3OCCC23)CC(C)(C)CCCC(C)=O)cc1 (some centres unmarked) [Compound 259],IC50,HIV-1 (strain IIIB),≤ 100 nM
same,Ki,HIV-1 protease,< 1 nM
"C/C(CCC(C)(C)CN(CC(O)[C@H](Cc1ccccc1)NC(=O)OC1COC2OCCC12)S(=O)(=O)c1ccc2c(c1)OCO2)=N\O (stereo partly drawn) [Compound 260, (3R,3aS,6aR)-Hexahydrofuro[2,3-b]furan-3-yl N-((1S,2R)-1-benzyl-3-(2,2-dimethyl-5-hydroxyiminohexyl)[(3,4-methylenedioxyphenyl)sulfonyl]amino-2-hydroxypropyl)carbamate]",IC50,HIV-1 (strain IIIB),≤ 100 nM
same,Ki,HIV-1 protease,< 1 nM
"CO/N=C(\C)CCC(C)(C)CN(CC(O)[C@H](Cc1ccccc1)NC(=O)OC1COC2OCCC12)S(=O)(=O)c1ccc2c(c1)OCO2 (stereo partly drawn) [Compound 261, (3R,3aS,6aR)-Hexahydrofuro[2,3-b]furan-3-yl-N-((1S,2R)-1-benzyl-3-(2,2-dimethyl-5-methoxyiminohexyl)[(3,4-methylenedioxyphenyl)sulfonyl]amino-2-hydroxypropyl)carbamate]",IC50,HIV-1 (strain IIIB),≤ 100 nM
same,Ki,HIV-1 protease,< 1 nM
"CC(C)(CCCN)CN(CC(O)C(Cc1ccccc1)NC(=O)OC1COC2OCCC12)S(=O)(=O)c1ccc2c(c1)OCCO2 [Compound 262, (3R,3aS,6aR)hexahydrofuro[2,3-b]furan-3-yl N-(1S,2R)-3-[(5-amino-2,2-dimethylpentyl)(2,3-dihydro-1,4-benzodioxin-6-ylsulfonyl)amino]-1-benzyl-2-hydroxypropylcarbamate]",IC50,HIV-1 (strain IIIB),100 to 500 nM
same,Ki,HIV-1 protease,< 1 nM
"COC(=O)NCCCC(C)(C)CN(C[C@@H](O)[C@H](Cc1ccccc1)NC(=O)O[C@H]1CO[C@H]2OCC[C@H]21)S(=O)(=O)c1ccc2c(c1)OCO2 [Compound 263, (3R,3aS,6aR)hexahydrofuro[2,3-b]furan-3-yl N-[(1S,2R)-3-((1,3-benzodioxol-5-ylsulfonyl)5-[(methoxycarbonyl)amino]-2,2-dimethylpentylamino)-1-benzyl-2-hydroxypropyl]carbamate]",IC50,HIV-1 (strain IIIB),≤ 100 nM
same,Ki,HIV-1 protease,< 1 nM
"CNc1cccc(S(=O)(=O)N(C[C@@H](O)[C@H](Cc2ccccc2)NC(=O)O[C@H]2CO[C@H]3OCC[C@H]32)CC(C)(C)CCCNC(=O)OC)c1 [Compound 264, (3R,3aS,6aR)hexahydrofuro[2,3-b]furan-3-yl N-[(1S,2R)-1-benzyl-2-hydroxy-3-(5-[(methoxycarbonyl)amino]-2,2-dimethylpentyl[3-(methylamino)phenyl]sulfonylamino)propyl]carbamate]",IC50,HIV-1 (strain IIIB),≤ 100 nM
same,Ki,HIV-1 protease,< 1 nM
"COC(=O)NCCCC(C)(C)CN(C[C@@H](O)[C@H](Cc1ccccc1)NC(=O)O[C@H]1CO[C@H]2OCC[C@H]21)S(=O)(=O)c1ccc2c(c1)OCCO2 [Compound 265, (3R,3aS,6aR)hexahydrofuro[2,3-b]furan-3-yl N-[(1S,2R)-1-benzyl-3-((2,3-dihydro-1,4-benzodioxin-6-ylsulfonyl)5-[(methoxycarbonyl)amino]-2,2-dimethylpentylamino)-2-hydroxypropyl]carbamate]",IC50,HIV-1 (strain IIIB),≤ 100 nM
same,Ki,HIV-1 protease,< 1 nM
"CN(C)C(=O)NCCCC(C)(C)CN(CC(O)C(Cc1ccccc1)NC(=O)OC1COC2OCCC12)S(=O)(=O)c1ccc2c(c1)OCO2 [Compound 266, (3R,3aS,6aR)hexahydrofuro[2,3-b]furan-3-yl N-(1S,2R)-3-[(1,3-benzodioxol-5-ylsulfonyl)(5-[(dimethylamino)carbonyl]amino-2,2-dimethylpentyl)amino]-1-benzyl-2-hydroxypropylcarbamate]",IC50,HIV-1 (strain IIIB),≤ 100 nM
same,Ki,HIV-1 protease,< 1 nM
"CNc1cccc(S(=O)(=O)N(C[C@@H](O)[C@H](Cc2ccccc2)NC(=O)O[C@H]2CO[C@H]3OCC[C@H]32)CC(C)(C)CCCNC(=O)N(C)C)c1 [Compound 267, (3R,3aS,6aR)hexahydrofuro[2,3-b]furan-3-yl N-[(1S,2R)-1-benzyl-3-((5-[(dimethylamino)carbonyl]amino-2,2-dimethylpentyl)[3-(methylamino)phenyl]sulfonylamino)-2-hydroxypropyl]carbamate]",IC50,HIV-1 (strain IIIB),≤ 100 nM
same,Ki,HIV-1 protease,< 1 nM
"CN(C)C(=O)NCCCC(C)(C)CN(CC(O)C(Cc1ccccc1)NC(=O)OC1COC2OCCC12)S(=O)(=O)c1ccc2c(c1)OCCO2 [Compound 268, (3R,3aS,6aR)hexahydrofuro[2,3-b]furan-3-yl N-(1S,2R)-1-benzyl-3-[(2,3-dihydro-1,4-benzodioxin-6-ylsulfonyl)(5-[(dimethylamino)carbonyl]amino-2,2-dimethylpentyl)amino]-2-hydroxypropylcarbamate]",IC50,HIV-1 (strain IIIB),≤ 100 nM
same,Ki,HIV-1 protease,< 1 nM
"CC(C)(CCCNS(C)(=O)=O)CN(C[C@@H](O)[C@H](Cc1ccccc1)NC(=O)O[C@H]1CO[C@H]2OCC[C@H]21)S(=O)(=O)c1ccc2c(c1)OCO2 [Compound 269, (3R,3aS,6aR)hexahydrofuro[2,3-b]furan-3-yl N-[(1S,2R)-3-((1,3-benzodioxol-5-ylsulfonyl)2,2-dimethyl-5-[(methylsulfonyl)amino]pentylamino)-1-benzyl-2-hydroxypropyl]carbamate]",IC50,HIV-1 (strain IIIB),≤ 100 nM
same,Ki,HIV-1 protease,< 1 nM
"CNc1cccc(S(=O)(=O)N(CC(O)C(Cc2ccccc2)NC(=O)OC2COC3OCCC23)CC(C)(C)CCCNS(C)(=O)=O)c1 [Compound 270, (3R,3aS,6aR)hexahydrofuro[2,3-b]furan-3-yl N-[(1S,2R)-1-benzyl-3-((5-[(methylsulfonyl]amino-2,2-dimethylpentyl)[3-(methylamino)phenyl]sulfonylamino)-2-hydroxypropyl]carbamate]",IC50,HIV-1 (strain IIIB),≤ 100 nM
same,Ki,HIV-1 protease,< 1 nM
"CC(C)(CCCNS(C)(=O)=O)CN(C[C@@H](O)[C@H](Cc1ccccc1)NC(=O)O[C@H]1CO[C@H]2OCC[C@H]21)S(=O)(=O)c1ccc2c(c1)OCCO2 [Compound 271, (3R,3aS,6aR)hexahydrofuro[2,3-b]furan-3-yl N-[(1S,2R)-3-((2,3-dihydro-1,4-benzodioxin-6-ylsulfonyl)2,2-dimethyl-5-[(methylsulfonyl)amino]pentylamino)-1-benzyl-2-hydroxypropyl]carbamate]",IC50,HIV-1 (strain IIIB),≤ 100 nM
same,Ki,HIV-1 protease,< 1 nM

# — patent publication US6617350B2, “Inhibitors of aspartyl protease” (priority 1999, dated 2003)
